Holding throughout (test): growth of human tumour cells (NCI), 48 h
For experiment [1], the system named is UACC-62 melanoma.
For experiment [2], the system named is SK-OV-3 ovarian.
Experiment [3] has as its system HL-60(TB) leukemia.
The test system of experiment [4] is HT29 colon.
The subject of experiment [5] is OVCAR-5 ovarian.
Experiment [6] concerns MOLT-4 leukemia.
Experiment [7] has as its system SN12C renal.
Experiment [8] has as its system MCF7 breast.
Experiment [9] deals with BT-549 breast.
Experiment [10] deals with UO-31 renal.

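Values below derive from 48-hour exposures of cells grown in 96-well plates, with endpoints linearly interpolated between the two concentrations bracketing the appropriate inhibition level. TGI: total growth inhibition.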

`COC(=O)/C=C(\C)CC/C=C(\C)CCC1OC1(C)C` (stereo not given): the TGI in experiment [1] is 19.8 µM; in experiment [2] it was > 75 µM; in experiment [3], 6.6 µM; in experiment [4] it was 27.6 µM; in experiment [5] it was 25.3 µM; in experiment [6], 24.4 µM. Further, the TGI in experiment [7] stood at 20.8 µM; in [8], 21.8 µM; in [9] it was 21.8 µM; in experiment [10], 20.8 µM.
As for `Cn1nc(-c2ccc(S(=O)(=O)/N=C(\NN)Nc3ccc(Cl)cc3)s2)cc1C(F)(F)F`, the TGI was 31.1 µM in experiment [1]; 41.9 µM in experiment [2]; 22.6 µM in experiment [3]; 30.4 µM in experiment [4]; 30.1 µM in experiment [5]; 22.4 µM in [6]. For the same molecule, the TGI came to 31.4 µM in experiment [7], 44.5 µM in experiment [8], 33.3 µM in experiment [9] and 28 µM in experiment [10].
Regarding `CN(C)c1ccc(/C=C(\NC(=O)c2ccccc2)C(=O)NC(CC(=O)O)C(=O)O)cc1` (stereo not given), the TGI in experiment [1], in [2], in [3], in experiment [4], in experiment [5] and in [6] was > 100 µM in each case. The TGI in experiment [7], in experiment [8], in experiment [9] and in experiment [10] was > 100 µM throughout.
As to `CC1=CC2C3(C)C(C)(C(C)=CP3(=O)c3c(C(C)C)cc(C(C)C)cc3C(C)C)C1P2(=O)c1c(C(C)C)cc(C(C)C)cc1C(C)C` (stereo not given), the TGI in experiment [1] came out at 2.92 µM; in experiment [2], 10.9 µM; in [3] it was 3.85 µM; in [4], 6.29 µM; in experiment [5], 6.31 µM; in experiment [6], 5.78 µM. Also, the TGI in experiment [7] was determined as 7.9 µM; in experiment [8] it was 6.38 µM; in experiment [9], 4.58 µM; in experiment [10] it was 4.36 µM.
Turning to `COC1OC(C)C(NC(=O)OCC(Cl)(Cl)Cl)C2OC(C)(C)OC12` (stereo not given), the TGI in [1], in experiment [2], in [3], in [4], in [5] and in experiment [6] was > 100 µM throughout. In addition, the TGI in experiment [7], in experiment [8], in experiment [9] and in experiment [10] was > 100 µM throughout.
For `Cc1c(C)n(-c2ccccc2)c2nc(S(C)=O)nc(S(C)=O)c12` (stereo not given), the TGI in experiment [1] stood at 20.1 µM; in experiment [2] it was 32.4 µM; in [3], 3.39 µM; in [4], 25.1 µM; in experiment [5], 28.9 µM; in experiment [6], 5.57 µM. Moreover, the TGI in [7] came to 24.6 µM; in [8], 7.1 µM; in [9], 4.13 µM; in [10], 20.2 µM.
`NS(=O)(=O)c1nnc(NC(=O)N(c2ccccc2)c2ccccc2)s1`: the TGI was 59.1 µM in experiment [1]; > 100 µM in experiment [2]; 48.2 µM in experiment [3]; > 100 µM in [4]; 70.1 µM in experiment [5]; > 100 µM in experiment [6]. The TGI is 40.8 µM in experiment [7], > 100 µM in experiment [8], 42.2 µM in experiment [9] and > 100 µM in experiment [10].
As to `CN1CSC(=S)N(c2cccc(C(F)(F)F)c2)C1`, the TGI in experiment [1] was 31.7 µM; in experiment [2], > 100 µM; in experiment [3], 59 µM; in experiment [4], 47.7 µM; in experiment [5], 37 µM; in [6], 57 µM. Moreover, the TGI in experiment [7] was > 100 µM; in experiment [8], 33.3 µM; in [9], 44.2 µM; in experiment [10], 45.3 µM.
As for `Cc1ccc2c(c1C)C(=O)C1(Cc3cc4c(cc3C1=O)CCC4)C2` (stereo not given), the TGI in experiment [1], in experiment [2], in experiment [3], in experiment [4], in experiment [5] and in experiment [6] was > 100 µM throughout. In addition, the TGI in experiment [7], in experiment [8], in [9] and in experiment [10] was > 100 µM each time.
As for `O=c1ccc2ccc(S)cc2o1`, the TGI in [1], in [2], in experiment [3], in [4], in experiment [5] and in [6] was > 100 µM throughout. For the same molecule, the TGI in experiment [7], in experiment [8], in experiment [9] and in experiment [10] was > 100 µM throughout.
Consider `CN(C)CCn1c(=O)c2ccc(NCCCN(C)CCCNc3ccc4c(=O)n(CCN(C)C)c(=O)n5c6ccc(O)cc6c(=O)c3c45)c3c(=O)c4cc(O)ccc4n(c1=O)c23`, for which the TGI in experiment [1] is 0.215 µM; in [2], 2.4 µM; in experiment [3], 0.701 µM; in experiment [4], 1.05 µM; in [5] it was 1.15 µM; in experiment [6], < 0.0289 µM. For the same molecule, the TGI in [7] came to 0.553 µM; in experiment [8] it was 0.71 µM; in experiment [9] it was 0.691 µM; in [10], 0.452 µM.

The values above are taken from PubChem BioAssay (NCI).
